Patent publication US4103011A, “Novel penicillin compounds and process for preparation thereof” (priority 1976, dated 1978)
Counter-ions that a name gives are not always drawn. Like-named read-outs stand apart in the source and are kept apart here.

Tests used:
[1] = tested on: Pseudomonas aeruginosa No. 12; assay: In vivo efficacy against systemic infection; design: species or system male mice (ddY); details: NO.12, in Mus musculus, twice, about 5 minutes and 6 hours after infection, read-out: ED50 (median effective dose)
Method: (§1) The contents in the vials (No. A and No. C) prepared in Example 17 were each dissolved in deionized water, and injections having various concentrations were prepared.
(§2) Compounds A, B, F, G, H and M were dissolved in deionized water.
(§3) Mice: male mice (ddY) weighting about 20g
Pseudomonas aeruginosa No. 12;
(§4) Intraperitoneal infection with 50 to
(§5) of a bacterial suspension in tryptosoy
(§6) twice, about 5 minutes and 6 hours after
Pseudomonas aeruginosa No. 12
(§7) calculated in accordance with the Behrens-Kaerber method [Arch. Exp. Path

[2] = tested on: Escherichia coli P-5101; assay: In vivo efficacy against systemic infection; design: species or system male mice (ddY); details: P5101, in Mus musculus, 168 h, twice, about 5 minutes and 6 hours after infection, read-out: ED50 (median effective dose)
Method: as §1, §2, §3, §4, §5, §6, §7

[3] = tested on: bacteria (systemic infection); assay: In vivo efficacy against systemic infection, overall conclusions; design: species or system male mice (ddY); details: Table II
Method: as §1
(§8) Compounds A, B, F, G, H and M were dissolved in deionized water. Compounds C, D, E and J were dissolved in an aqueous solution of sodium carbonate (pH 8-9) to prepare injections of various concentrations.
(§9) Each of the injections was administered to mice under the conditions described below, and the median effective doses (ED50) obtained are shown in Table II.

[4] = tested on: Shigella flexneri 4a P-330; assay: In vitro antibacterial activity (MIC); assay type: cell-based; details: 4AP330, read-out: minimum inhibitory concentration (MIC)
Excerpt: (§10) In vitro antibacterial activity against 20 strains of bacteria
(§11) The numerals in the table show minimum inhibitory concentrations (MIC)

[5] = tested on: Staphylococcus aureus No. 50774; assay: In vitro antibacterial activity (MIC); assay type: cell-based; details: Staphylococcus aureus No. 50774; read-out: minimum inhibitory concentration (MIC)
Excerpt: as §10, §11

[6] = tested on: Streptococcus pyogenes 65A; assay: In vitro antibacterial activity (MIC); assay type: cell-based; details: Streptococcus pyogenes 65A; read-out: minimum inhibitory concentration (MIC)
Excerpt: as §10, §11

[7] = tested on: Proteus morganii Kono; assay: In vitro antibacterial activity (MIC); assay type: cell-based; details: Morganella morganii, read-out: minimum inhibitory concentration (MIC)
Excerpt: as §10, §11

[8] = tested on: Corynebacterium pyogenes C-21; assay: In vitro antibacterial activity (MIC); assay type: cell-based; details: Rhodococcus (subgen. Prescottella) equi, C21; Corynebacterium pyogenes C-21; read-out: minimum inhibitory concentration (MIC)
Excerpt: as §10, §11

[9] = tested on: Shigella flexneri 2a; assay: In vitro antibacterial activity (MIC); assay type: cell-based; details: read-out: minimum inhibitory concentration (MIC)
Excerpt: as §10, §11

[10] = tested on: Proteus mirabilis P-2381; assay: In vitro antibacterial activity (MIC); assay type: cell-based
Excerpt: as §10, §11

[11] = tested on: Enterobacter cloacae P-2540; assay: In vitro antibacterial activity (MIC); assay type: cell-based
Excerpt: as §10, §11

[12] = tested on: Escherichia coli P-5101; assay: In vitro antibacterial activity (MIC); assay type: cell-based; details: Escherichia coli, P5101, read-out: minimum inhibitory concentration (MIC)
Excerpt: as §10, §11

[13] = tested on: Klebsiella pneumoniae No. 13; assay: In vitro antibacterial activity (MIC); assay type: cell-based; details: Klebsiella pneumoniae No. 13; read-out: minimum inhibitory concentration (MIC)
Excerpt: as §10, §11

[14] = tested on: Salmonella enteritidis No. 1891; assay: In vitro antibacterial activity (MIC); assay type: cell-based; details: Salmonella enterica; Salmonella enteritidis No. 1891; read-out: minimum inhibitory concentration (MIC)
Excerpt: as §10, §11

[15] = tested on: Serratia mercescens IFO 3736; assay: In vitro antibacterial activity (MIC); assay type: cell-based
Excerpt: as §10, §11

[16] = tested on: Pseudomonas aeruginosa Tsuchijima; assay: In vitro antibacterial activity (MIC); assay type: cell-based; details: Pseudomonas aeruginosa Tsuchijima; read-out: minimum inhibitory concentration (MIC)
Excerpt: as §10, §11

[17] = tested on: Escherichia coli P-140a; assay: In vitro antibacterial activity (MIC); assay type: cell-based
Excerpt: as §10, §11

[18] = tested on: Escherichia coli NIHJ JC-2; assay: In vitro antibacterial activity (MIC); assay type: cell-based
Excerpt: as §10, §11

[19] = tested on: Pseudomonas aeruginosa No.12; assay: In vitro antibacterial activity (MIC); assay type: cell-based
Excerpt: as §10, §11

[20] = tested on: Salmonella typhimurium S-9; assay: In vitro antibacterial activity (MIC); assay type: cell-based; details: Salmonella enterica; Salmonella typhimurium S-9; read-out: minimum inhibitory concentration (MIC)
Excerpt: as §10, §11

[21] = tested on: Streptococcus faecalis P-2473; assay: In vitro antibacterial activity (MIC); assay type: cell-based; details: Enterococcus faecalis
Excerpt: as §10, §11

[22] = tested on: Staphylococcus aureus 209P JC-1; assay: In vitro antibacterial activity (MIC); assay type: cell-based; details: Staphylococcus aureus 209P JC-1; read-out: minimum inhibitory concentration (MIC)
Excerpt: as §10, §11

[23] = tested on: Proteus rettgeri P-2503; assay: In vitro antibacterial activity (MIC); assay type: cell-based; details: Providencia rettgeri
Excerpt: as §10, §11

[24] = in vivo; details: mouse
[25] = tested on: Staphylococcus aureus No. 50774; assay: In vivo efficacy against systemic infection; design: species or system male mice (ddY); details: NO.50774, in Mus musculus, 336 h, sc, twice, about 5 minutes and 6 hours after infection, read-out: ED50 (median effective dose)
Method: as §1, §8, §9, §3
Staphylococcus aureus No. 50774;
Intravenous infection with 50 to 100
LD50 (about 5 × 10^8cells/mouse) of a
bacterial suspension in saline.
as §6
Staphylococcus aureus No. 50774 14 days
The numerals in the table show ED50 (mg/kg). ED50 values were
as §7

[26] = tested on: 20 strains of bacteria; assay: In vitro antibacterial activity, overall conclusions; assay type: cell-based
Excerpt: as §10

[27] = P2381, Proteus mirabilis P-2381, read-out: minimum inhibitory concentration (MIC)
[28] = P2540, Enterobacter cloacae P-2540, read-out: minimum inhibitory concentration (MIC)
[29] = IFO3736, Serratia mercescens IFO 3736, read-out: minimum inhibitory concentration (MIC)
[30] = NIHJJC2, Escherichia coli NIHJ JC-2, read-out: minimum inhibitory concentration (MIC)
[31] = Pseudomonas aeruginosa No.12, read-out: minimum inhibitory concentration (MIC)
[32] = P2503, Proteus rettgeri P-2503, read-out: minimum inhibitory concentration (MIC)
[33] = Proteus mirabilis, P2381, read-out: minimum inhibitory concentration (MIC)
[34] = Pseudomonas aeruginosa, NO.12, read-out: minimum inhibitory concentration (MIC)
[35] = P2473, Streptococcus faecalis P-2473, read-out: minimum inhibitory concentration (MIC)
[36] = Escherichia coli, NIHJJC2, read-out: minimum inhibitory concentration (MIC)

SMILES | ED50 ([1]; iv) | ED50 ([1]; sc) | ED50 ([2]; iv) | ED50 ([2]; sc) | antibacterial activity in vivo (in words) [3] | MIC [4] | MIC [5] | MIC [6] | MIC ([7]; Proteus morganii Kono) | MIC [8] | MIC [9] | MIC [11, 28] | MIC [12] | MIC [13] | MIC [14] | MIC [16] | minimum inhibitory concentration (MIC) [17] | MIC [20] | MIC [22] | ED50 [25] | other results
CN1CCN(c2ncc3c(=O)c(C(=O)N[C@@H](C(=O)N[C@@H]4C(=O)N5[C@@H]4SC(C)(C)[C@@H]5C(=O)O)c4ccc(O)cc4)c[nH]c3n2)CC1 [Compound A, D-α-[5,8-Dihydro-2-(4-methyl-1-piperazinyl)-5-oxopyrido[2,3-d]pyrimidine-6-carboxamido]-p-hydroxybenzylpenicillin sodium salt] | 2.6 mg/kg | 3.6 mg/kg | 0.7 mg/kg | 1 mg/kg | almost comparable | 0.78 µg/mL | 3.13 µg/mL | < 0.1 µg/mL | 3.13 µg/mL | 0.78 µg/mL | 0.78 µg/mL | 3.13 µg/mL | 0.39 µg/mL | 6.25 µg/mL | 0.2 µg/mL | 0.39 µg/mL | 6.25 µg/mL | 0.2 µg/mL | 1.56 µg/mL | 3.7 mg/kg | MIC [10, 27]: 3.13 µg/mL; MIC [15, 29]: 3.13 µg/mL; MIC [18, 30]: 0.78 µg/mL; MIC [19, 31]: 1.56 µg/mL; MIC ([21]; P2473, read-out: minimum inhibitory concentration (MIC)): 6.25 µg/mL; MIC [23, 32]: 6.25 µg/mL; LD50 at 168 h ([24]; iv): 1120 mg/kg; selectivity ratio ([24]; iv): 432; LD50 at 168 h ([24]; sc): 1500 mg/kg; selectivity ratio ([24]; sc): 417
CNc1ncc2c(=O)c(C(=O)N[C@@H](C(=O)N[C@@H]3C(=O)N4[C@@H]3SC(C)(C)[C@@H]4C(=O)O)c3ccc(O)cc3)c[nH]c2n1 [Compound F, D-α-(5,8-Dihydro-2-methylamino-5-oxopyrido[2,3-d]pyrimidine-6-carboxamido)-p-hydroxybenzylpenicillin sodium salt] | 5.7 mg/kg | 4.8 mg/kg | 12 mg/kg | 6.3 mg/kg | almost comparable | 6.25 µg/mL | 0.39 µg/mL | < 0.1 µg/mL | 12.5 µg/mL | 0.78 µg/mL | 3.13 µg/mL | 12.5 µg/mL | 3.13 µg/mL | 25 µg/mL | 1.56 µg/mL | 0.78 µg/mL | 25 µg/mL | 1.56 µg/mL | 0.39 µg/mL | ~0.7 mg/kg | MIC [10, 33]: 3.13 µg/mL; MIC [15, 29]: 12.5 µg/mL; MIC [18, 30]: 12.5 µg/mL; MIC [19, 34]: 6.25 µg/mL; MIC [21, 35]: 1.56 µg/mL; MIC [23, 32]: 12.5 µg/mL; LD50 at 168 h ([24]; iv): 1410 mg/kg; selectivity ratio ([24]; iv): 248; LD50 at 168 h ([24]; sc): 1410 mg/kg; selectivity ratio ([24]; sc): 295
CC1(C)S[C@@H]2[C@H](NC(=O)[C@H](NC(=O)c3c[nH]c4nc(N)ncc4c3=O)c3ccc(O)cc3)C(=O)N2[C@H]1C(=O)O [Compound G, D-α-(5,8-Dihydro-2-amino-5-oxopyrido[2,3-d]pyrimidine-6-carboxamido)-p-hydroxybenzylpenicillin sodium salt] | 3.9 mg/kg | 4.4 mg/kg | 8.8 mg/kg | 11.5 mg/kg | almost comparable | 6.25 µg/mL | 0.39 µg/mL | < 0.1 µg/mL | – | 0.78 µg/mL | 3.13 µg/mL | – | 3.13 µg/mL | 25 µg/mL | 0.78 µg/mL | 0.39 µg/mL | 50 µg/mL | 1.56 µg/mL | 0.39 µg/mL | ~0.8 mg/kg | MIC [7]: 6.25 µg/mL; MIC [10, 33]: 3.13 µg/mL; MIC ([11]; Enterobacter cloacae, P2540, read-out: minimum inhibitory concentration (MIC)): 6.25 µg/mL; MIC [15, 29]: 12.5 µg/mL; MIC [18, 36]: 6.25 µg/mL; MIC [19, 34]: 3.13 µg/mL; MIC [21, 35]: 1.56 µg/mL; MIC ([23]; P2503, read-out: minimum inhibitory concentration (MIC)): 6.25 µg/mL; LD50 at 168 h ([24]; iv): 1000 mg/kg; selectivity ratio ([24]; iv): 256; LD50 at 168 h ([24]; sc): 1000 mg/kg; selectivity ratio ([24]; sc): 227
CC1(C)S[C@@H]2[C@H](NC(=O)[C@H](N)c3ccc(O)cc3)C(=O)N2[C@H]1C(=O)O [Compound M, D-α-Amino-p-hydroxybenzylpenicillin sodium salt] | – | > 200 mg/kg | 3.2 mg/kg | 3.4 mg/kg | – | 25 µg/mL | 0.1 µg/mL | 0.025 µg/mL | 200 µg/mL | 0.39 µg/mL | 6.25 µg/mL | > 200 µg/mL | 6.25 µg/mL | 200 µg/mL | 0.39 µg/mL | 200 µg/mL | > 200 µg/mL | 0.78 µg/mL | 0.1 µg/mL | 0.34 mg/kg | antibacterial activity (in words) ([26]; Ampicillin-resistant strains): does not exhibit antibacterial activity; antibacterial activity (in words) ([26]; E. coli P-140a, Klebsiella pneumonia, Enterobacter cloacae, Pseudomonas aeruginosa, Serratia marcescens): substantially ineffective; antibacterial activity (in words) ([26]; bacteria of the genus Pseudomonas): substantially ineffective; MIC [10, 27]: 1.56 µg/mL; MIC ([15]; Serratia, IFO3736, read-out: minimum inhibitory concentration (MIC)): 50 µg/mL; MIC [18, 36]: 6.25 µg/mL; MIC [19, 31]: > 200 µg/mL; MIC [21, 35]: 0.78 µg/mL; MIC [23, 32]: 50 µg/mL
